Tests used:
[1] = biological target: T1, Glk (BT2493) (Bacteroides thetaiotaomicron, UniProt Q8A4V4); experiment: glucokinase activity in vitro, coupled NADH oxidation, […] nm; assay type: biochemical; settings: 50 mM Tris pH 7.4, 3 mM MgCl2, 10 mM NH4Cl; data only in supplement
T1 sequence (Q8A4V4 1-326): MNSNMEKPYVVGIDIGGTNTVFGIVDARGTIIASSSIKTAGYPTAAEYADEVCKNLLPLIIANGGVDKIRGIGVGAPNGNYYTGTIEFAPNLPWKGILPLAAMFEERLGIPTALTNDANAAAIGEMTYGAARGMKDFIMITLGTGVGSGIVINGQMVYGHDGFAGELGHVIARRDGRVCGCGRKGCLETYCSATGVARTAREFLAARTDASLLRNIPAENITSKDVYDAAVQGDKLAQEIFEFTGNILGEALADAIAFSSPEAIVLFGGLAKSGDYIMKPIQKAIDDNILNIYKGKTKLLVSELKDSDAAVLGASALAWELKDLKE

[2] = system: Cur (Bacteroides thetaiotaomicron VPI-5482); experiment: EMSA

Molecule | glucokinase activity in vitro, coupled NADH oxidation, 340 nm [1] | Kd [2]
OC[C@H]1OC(O)[C@H](O)[C@@H](O)[C@@H]1O (some centres unmarked) [glucose] | We determined that Glk exhibits glucokinase activity in vitro (Supplementary Fig. 4a) | –
fusA2 promoter probe (wild-type) | – | 4.97 pmol
